Values joined by “and” are separate entries in the source; they are usually repeats but may differ in a detail not shown here. Equal entries are not always repeated.
Legend:
Assay in all cases: radiometric filter-binding kinase assay, Kinaseprofiler
CLK3 (human) = CLK3 (human) (UniProt P49761); settings: ATP 90 µM
CDK1 CCNB1 (human) = CDK1 CCNB1 (human) (UniProt P06493+P14635); settings: ATP 45 µM
AURKB (human) = AURKB (human) (UniProt Q96GD4); settings: ATP 10 µM
MYLK (human) = MYLK (human) (UniProt Q15746); settings: ATP 70 µM
TYRO3 (human) = TYRO3 (human) (UniProt Q06418); settings: ATP 45 µM
GCK (human) = GCK (human) (UniProt Q12851); settings: ATP 200 µM
GCK (human), sequence (Q12851 whole entry, looked up): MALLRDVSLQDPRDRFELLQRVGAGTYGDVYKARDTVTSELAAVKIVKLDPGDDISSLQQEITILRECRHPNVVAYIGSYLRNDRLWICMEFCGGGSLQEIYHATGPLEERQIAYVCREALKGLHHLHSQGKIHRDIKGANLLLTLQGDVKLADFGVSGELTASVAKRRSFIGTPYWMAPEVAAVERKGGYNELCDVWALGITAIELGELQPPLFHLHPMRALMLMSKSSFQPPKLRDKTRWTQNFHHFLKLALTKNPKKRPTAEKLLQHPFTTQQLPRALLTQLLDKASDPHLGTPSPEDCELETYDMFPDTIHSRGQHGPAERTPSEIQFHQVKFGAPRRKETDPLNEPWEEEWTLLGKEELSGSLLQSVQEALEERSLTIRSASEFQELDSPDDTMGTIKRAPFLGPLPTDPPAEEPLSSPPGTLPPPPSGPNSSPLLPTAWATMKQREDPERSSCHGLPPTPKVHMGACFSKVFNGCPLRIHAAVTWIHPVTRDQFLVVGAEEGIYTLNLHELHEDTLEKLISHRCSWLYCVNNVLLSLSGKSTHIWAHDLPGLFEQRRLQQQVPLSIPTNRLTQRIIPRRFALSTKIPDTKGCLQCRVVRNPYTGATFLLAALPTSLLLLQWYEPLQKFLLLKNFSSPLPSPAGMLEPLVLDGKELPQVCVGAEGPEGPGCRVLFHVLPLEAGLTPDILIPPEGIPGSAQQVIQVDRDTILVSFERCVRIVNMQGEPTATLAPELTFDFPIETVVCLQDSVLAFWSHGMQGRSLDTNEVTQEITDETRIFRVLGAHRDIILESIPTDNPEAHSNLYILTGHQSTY

EPHB1 (human) = EPHB1 (human) (UniProt P54762); settings: ATP 200 µM
TLK2 (human) = TLK2 (human) (UniProt Q86UE8); settings: ATP 10 µM
PRKD2 (human) = PRKD2 (human) (UniProt Q9BZL6); settings: ATP 155 µM
MUSK (human) = MUSK (human) (UniProt O15146); settings: ATP 155 µM
MELK (human) = MELK (human) (UniProt Q14680); settings: ATP 45 µM
SRPK3 (human) = SRPK3 (human) (UniProt Q9UPE1); settings: ATP 15 µM
IRAK1 (human) = IRAK1 (human) (UniProt P51617); settings: ATP 45 µM
PAK3 (human) = PAK3 (human) (UniProt O75914); settings: ATP 120 µM
PRKACA (human) = PRKACA (human) (UniProt P17612); settings: ATP 10 µM
LCK (human) = LCK (human) (UniProt P06239); settings: compound 1.0 µM; ATP 90 µM
MKNK2 (human) = MKNK2 (human) (UniProt Q9HBH9); settings: ATP 120 µM
MAPK1 (human) = MAPK1 (human) (UniProt P28482); settings: ATP 155 µM
EPHA1 (human) = EPHA1 (human) (UniProt P21709); settings: ATP 45 µM
PAK6 (human) = PAK6 (human) (UniProt Q9NQU5); settings: ATP 10 µM
PIM1 (human) = PIM1 (human) (UniProt P11309); settings: ATP 90 µM
PIM1 (human), sequence (P11309 whole entry, looked up): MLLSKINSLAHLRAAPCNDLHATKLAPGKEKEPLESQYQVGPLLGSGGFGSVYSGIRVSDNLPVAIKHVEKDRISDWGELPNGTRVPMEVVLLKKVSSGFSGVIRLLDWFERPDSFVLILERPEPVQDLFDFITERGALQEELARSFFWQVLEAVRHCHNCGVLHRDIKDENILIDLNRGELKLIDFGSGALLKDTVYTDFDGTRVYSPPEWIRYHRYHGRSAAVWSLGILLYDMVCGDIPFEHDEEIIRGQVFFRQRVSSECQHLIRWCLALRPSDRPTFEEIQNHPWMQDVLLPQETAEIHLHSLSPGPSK

PDGFRB (human) = PDGFRB (human) (UniProt P09619); settings: ATP 200 µM
MST1R (human) = MST1R (human) (UniProt Q04912); settings: ATP 70 µM
PDGFRA (human) = PDGFRA (human) (UniProt P16234); settings: ATP 120 µM
[1] = target: PRKAA2 PRKAB1 PRKAG1 (human) (UniProt P54619+P54646+Q9Y478); settings: ATP 45 µM
PRKAA2 PRKAB1 PRKAG1 (human), sequence (P54619 whole entry, looked up): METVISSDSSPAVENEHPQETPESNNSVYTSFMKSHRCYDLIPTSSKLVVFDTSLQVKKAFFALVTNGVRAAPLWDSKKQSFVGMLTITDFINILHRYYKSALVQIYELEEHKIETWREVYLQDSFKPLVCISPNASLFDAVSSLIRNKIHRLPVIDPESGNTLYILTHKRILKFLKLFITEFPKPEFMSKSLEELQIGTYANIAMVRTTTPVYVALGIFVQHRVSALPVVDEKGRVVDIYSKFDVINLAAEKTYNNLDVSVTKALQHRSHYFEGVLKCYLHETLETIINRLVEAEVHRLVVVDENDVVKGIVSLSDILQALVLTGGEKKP
PRKAA2 PRKAB1 PRKAG1 (human), sequence (P54646 whole entry, looked up): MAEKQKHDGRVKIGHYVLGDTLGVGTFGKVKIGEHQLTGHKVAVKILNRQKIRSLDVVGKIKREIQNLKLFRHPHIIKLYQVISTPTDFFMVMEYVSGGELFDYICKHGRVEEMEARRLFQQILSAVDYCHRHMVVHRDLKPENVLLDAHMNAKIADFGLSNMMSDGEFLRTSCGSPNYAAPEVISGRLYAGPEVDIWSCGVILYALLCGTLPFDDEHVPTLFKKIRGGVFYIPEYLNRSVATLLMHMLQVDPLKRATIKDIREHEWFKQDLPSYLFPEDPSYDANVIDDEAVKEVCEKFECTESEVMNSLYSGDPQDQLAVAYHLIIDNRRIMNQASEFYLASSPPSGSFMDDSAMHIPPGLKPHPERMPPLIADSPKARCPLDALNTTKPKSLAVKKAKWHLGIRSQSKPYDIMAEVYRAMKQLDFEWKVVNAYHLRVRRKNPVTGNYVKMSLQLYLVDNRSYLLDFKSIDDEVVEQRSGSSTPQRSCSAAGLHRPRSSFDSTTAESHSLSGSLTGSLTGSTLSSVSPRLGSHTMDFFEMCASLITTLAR
PRKAA2 PRKAB1 PRKAG1 (human), sequence (Q9Y478 whole entry, looked up): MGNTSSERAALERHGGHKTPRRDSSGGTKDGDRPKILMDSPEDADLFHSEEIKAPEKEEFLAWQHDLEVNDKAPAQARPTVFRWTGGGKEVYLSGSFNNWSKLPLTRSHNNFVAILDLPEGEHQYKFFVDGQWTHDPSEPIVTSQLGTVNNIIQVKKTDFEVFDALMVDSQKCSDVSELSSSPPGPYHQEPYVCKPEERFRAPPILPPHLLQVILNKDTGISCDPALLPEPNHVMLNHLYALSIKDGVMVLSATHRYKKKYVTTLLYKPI

MAPK10 (human) = MAPK10 (human) (UniProt P53779); settings: ATP 10 µM
MAPK10 (human), sequence (P53779 whole entry, looked up): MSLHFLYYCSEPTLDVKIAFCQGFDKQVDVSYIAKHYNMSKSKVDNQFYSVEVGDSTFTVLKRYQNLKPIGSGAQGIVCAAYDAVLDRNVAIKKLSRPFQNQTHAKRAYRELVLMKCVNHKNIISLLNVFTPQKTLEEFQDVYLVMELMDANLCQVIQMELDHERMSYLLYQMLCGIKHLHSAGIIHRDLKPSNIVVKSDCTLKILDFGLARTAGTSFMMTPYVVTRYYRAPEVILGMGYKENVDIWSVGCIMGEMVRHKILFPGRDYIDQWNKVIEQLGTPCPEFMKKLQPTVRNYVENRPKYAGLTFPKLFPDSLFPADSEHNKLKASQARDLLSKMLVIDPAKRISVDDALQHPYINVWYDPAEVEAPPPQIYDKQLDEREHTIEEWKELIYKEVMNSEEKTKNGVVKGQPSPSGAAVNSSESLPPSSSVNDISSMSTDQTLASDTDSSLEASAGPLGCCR

RIPK2 (human) = RIPK2 (human) (UniProt O43353); settings: ATP 120 µM
RIPK2 (human), sequence (O43353 whole entry, looked up): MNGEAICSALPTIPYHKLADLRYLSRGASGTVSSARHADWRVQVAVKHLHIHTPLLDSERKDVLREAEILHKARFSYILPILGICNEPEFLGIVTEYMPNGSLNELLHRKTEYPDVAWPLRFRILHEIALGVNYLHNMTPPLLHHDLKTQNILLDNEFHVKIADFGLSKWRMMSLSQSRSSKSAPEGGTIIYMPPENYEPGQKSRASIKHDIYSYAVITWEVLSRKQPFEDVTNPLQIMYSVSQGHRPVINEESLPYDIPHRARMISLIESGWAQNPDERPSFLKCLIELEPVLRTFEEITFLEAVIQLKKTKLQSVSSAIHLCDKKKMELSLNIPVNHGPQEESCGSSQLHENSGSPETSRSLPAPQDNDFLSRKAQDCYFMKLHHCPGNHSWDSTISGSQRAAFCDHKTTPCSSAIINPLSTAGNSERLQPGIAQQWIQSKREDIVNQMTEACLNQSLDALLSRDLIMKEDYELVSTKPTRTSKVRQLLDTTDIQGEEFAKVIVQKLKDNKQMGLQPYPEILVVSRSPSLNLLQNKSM

CDC42BPB (human) = CDC42BPB (human) (UniProt Q9Y5S2); settings: ATP 10 µM
SRPK1 (human) = SRPK1 (human) (UniProt Q96SB4); settings: ATP 10 µM
KDR (human) = KDR (human) (UniProt P35968); settings: ATP 90 µM
ERBB4 (human) = ERBB4 (human) (UniProt Q15303); settings: ATP 15 µM
ERBB4 (human), sequence (Q15303 whole entry, looked up): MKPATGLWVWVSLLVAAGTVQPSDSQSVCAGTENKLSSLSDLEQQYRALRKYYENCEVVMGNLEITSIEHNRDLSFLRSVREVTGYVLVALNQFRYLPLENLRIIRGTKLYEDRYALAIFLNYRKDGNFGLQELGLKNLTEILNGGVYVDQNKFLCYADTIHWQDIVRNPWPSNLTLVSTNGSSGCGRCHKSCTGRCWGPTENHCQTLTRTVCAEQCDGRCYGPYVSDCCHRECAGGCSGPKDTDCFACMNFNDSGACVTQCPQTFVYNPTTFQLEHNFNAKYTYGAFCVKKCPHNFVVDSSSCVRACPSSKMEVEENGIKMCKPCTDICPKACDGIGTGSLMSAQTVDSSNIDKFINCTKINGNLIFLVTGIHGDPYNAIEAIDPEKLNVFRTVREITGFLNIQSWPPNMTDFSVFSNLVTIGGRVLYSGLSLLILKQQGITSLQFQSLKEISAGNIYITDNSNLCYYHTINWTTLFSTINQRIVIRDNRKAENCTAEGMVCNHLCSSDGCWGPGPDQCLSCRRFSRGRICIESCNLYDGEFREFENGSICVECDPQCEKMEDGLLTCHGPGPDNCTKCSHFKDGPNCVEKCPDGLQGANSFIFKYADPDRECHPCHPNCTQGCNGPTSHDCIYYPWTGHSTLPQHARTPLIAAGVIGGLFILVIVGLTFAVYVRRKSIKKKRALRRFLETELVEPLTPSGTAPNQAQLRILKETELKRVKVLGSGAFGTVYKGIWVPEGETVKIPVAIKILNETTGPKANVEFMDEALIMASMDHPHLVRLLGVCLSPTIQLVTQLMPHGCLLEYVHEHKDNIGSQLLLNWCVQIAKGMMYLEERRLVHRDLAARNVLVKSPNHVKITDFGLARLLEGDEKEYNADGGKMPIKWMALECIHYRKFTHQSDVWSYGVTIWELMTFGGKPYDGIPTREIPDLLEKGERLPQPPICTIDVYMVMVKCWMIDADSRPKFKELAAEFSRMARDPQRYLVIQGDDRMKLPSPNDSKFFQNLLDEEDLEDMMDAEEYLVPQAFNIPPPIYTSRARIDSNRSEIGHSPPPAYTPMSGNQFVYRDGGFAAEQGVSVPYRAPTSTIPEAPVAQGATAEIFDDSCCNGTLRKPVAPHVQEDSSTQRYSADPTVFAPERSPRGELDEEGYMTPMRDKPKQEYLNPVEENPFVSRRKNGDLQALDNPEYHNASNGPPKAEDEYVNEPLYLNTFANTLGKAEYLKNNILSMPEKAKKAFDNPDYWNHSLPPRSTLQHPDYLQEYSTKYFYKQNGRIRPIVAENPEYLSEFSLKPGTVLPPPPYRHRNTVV

FES (human) = FES (human) (UniProt P07332); settings: ATP 45 µM
NEK11 (human) = NEK11 (human) (UniProt Q8NG66); settings: ATP 200 µM

AURKB (human), sequence (Q96GD4 whole entry, looked up): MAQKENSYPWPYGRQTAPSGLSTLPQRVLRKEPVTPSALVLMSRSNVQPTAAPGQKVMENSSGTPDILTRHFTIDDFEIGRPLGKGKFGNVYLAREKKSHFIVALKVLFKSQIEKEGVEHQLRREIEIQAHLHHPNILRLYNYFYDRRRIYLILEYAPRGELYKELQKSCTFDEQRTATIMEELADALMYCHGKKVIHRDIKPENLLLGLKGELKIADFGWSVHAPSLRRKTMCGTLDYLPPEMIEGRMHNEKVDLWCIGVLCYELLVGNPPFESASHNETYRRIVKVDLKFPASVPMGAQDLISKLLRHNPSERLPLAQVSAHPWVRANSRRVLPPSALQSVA

residual activity (CLK3 (human); compound 1.0 µM): 72%
residual activity (CLK3 (human); compound 10.0 µM): 34%
residual activity (CDK1 CCNB1 (human); compound 1.0 µM): 52%
residual activity (CDK1 CCNB1 (human); compound 10.0 µM): 35%
residual activity (AURKB (human); compound 1.0 µM): 1%
residual activity (AURKB (human); compound 10.0 µM): 0%
residual activity (MYLK (human); compound 1.0 µM): 29%
residual activity (MYLK (human); compound 10.0 µM): 3%
residual activity (TYRO3 (human); compound 1.0 µM): 97%
residual activity (TYRO3 (human); compound 10.0 µM): 81%
residual activity (GCK (human); compound 1.0 µM): 16%
residual activity (GCK (human); compound 10.0 µM): 2%
residual activity (EPHB1 (human); compound 1.0 µM): 91%
residual activity (EPHB1 (human); compound 10.0 µM): 29%
residual activity (TLK2 (human); compound 1.0 µM): 71%
residual activity (TLK2 (human); compound 10.0 µM): 38%
residual activity (PRKD2 (human); compound 1.0 µM): 92%
residual activity (PRKD2 (human); compound 10.0 µM): 36%
residual activity (MUSK (human); compound 1.0 µM): 60%
residual activity (MUSK (human); compound 10.0 µM): 24%
residual activity (MELK (human); compound 1.0 µM): 13%
residual activity (MELK (human); compound 10.0 µM): 0%
residual activity (SRPK3 (human); compound 1.0 µM): 90%
residual activity (SRPK3 (human); compound 10.0 µM): 82%
residual activity (IRAK1 (human); compound 1.0 µM): 69%
residual activity (IRAK1 (human); compound 10.0 µM): 42%
residual activity (PAK3 (human); compound 1.0 µM): 85%
residual activity (PAK3 (human); compound 10.0 µM): 96%
residual activity (PRKACA (human); compound 1.0 µM): 89%
residual activity (PRKACA (human); compound 10.0 µM): 73%
residual activity (LCK (human)): 70% and 89%
residual activity (MKNK2 (human); compound 1.0 µM): 43%
residual activity (MKNK2 (human); compound 10.0 µM): 10%
residual activity (MAPK1 (human); compound 1.0 µM): 88%
residual activity (MAPK1 (human); compound 10.0 µM): 55%
residual activity (EPHA1 (human); compound 1.0 µM): 67%
residual activity (EPHA1 (human); compound 10.0 µM): 42%
residual activity (PAK6 (human); compound 1.0 µM): 91%
residual activity (PAK6 (human); compound 10.0 µM): 49%
residual activity (PIM1 (human); compound 1.0 µM): 68%
residual activity (PIM1 (human); compound 10.0 µM): 18%
residual activity (PDGFRB (human); compound 1.0 µM): 99%
residual activity (PDGFRB (human); compound 10.0 µM): 96%
residual activity (MST1R (human); compound 1.0 µM): 78%
residual activity (MST1R (human); compound 10.0 µM): 51%
residual activity (PDGFRA (human); compound 1.0 µM): 108%
residual activity (PDGFRA (human); compound 10.0 µM): 86%
residual activity ([1]; compound 1.0 µM): 69%
residual activity ([1]; compound 10.0 µM): 28%
residual activity (MAPK10 (human); compound 1.0 µM): 5%
residual activity (MAPK10 (human); compound 10.0 µM): -6%
residual activity (RIPK2 (human); compound 1.0 µM): 70%
residual activity (RIPK2 (human); compound 10.0 µM): 52%
residual activity (CDC42BPB (human); compound 1.0 µM): 90%
residual activity (CDC42BPB (human); compound 10.0 µM): 95%
residual activity (SRPK1 (human); compound 1.0 µM): 98%
residual activity (SRPK1 (human); compound 10.0 µM): 87%
residual activity (KDR (human); compound 1.0 µM): 17%
residual activity (KDR (human); compound 10.0 µM): 3%
residual activity (ERBB4 (human); compound 1.0 µM): 104%
residual activity (ERBB4 (human); compound 10.0 µM): 97%
residual activity (FES (human); compound 1.0 µM): 34%
residual activity (FES (human); compound 10.0 µM): 6%
residual activity (NEK11 (human); compound 1.0 µM): 50%
residual activity (NEK11 (human); compound 10.0 µM): 47%
SMILES: O=C1c2ccccc2-c2n[nH]c3cccc1c23
